Legend:
[1] = test system: db/db mice; assay: Serum insulin level (insulin production ability protecting action) in db/db mice after 42 days of oral administration; format: in vivo; settings: for Serum insulin levels on 43rd day of administration: male db/db mice, ELISA, negative sample 1.99 ± 0.66; for Pancreatic function (insulin production ability) protecting effect: 0.1 μg/animal; for Pancreatic function (insulin production ability) protecting effect / Serum insulin level as % of that observed in the negative test: 43rd day of continuous administration, db/db mice; for Serum insulin level as % of that observed in the negative test: 1 μg/animal
Description: In this test, the endocrine gland cell functions (insulin production ability) protecting action of compounds having a lophenol skeleton was evaluated by using db/db mice known as a model animal of pancreatic hypofunction or pancreatic tissue dysfunction.
4-methyl-cholest-7-en-3-ol produced in Preparation Example mentioned above was used as test sample 1, 4-methyl-ergost-7-en-3-ol was used as test sample 2, and 4-methyl-stigmast-7-en-3-ol was used as test samples 3.
In this test, 6-week old male db/db mice (purchased from Clea Japan, Inc.) were used. These mice were divided into groups, each consisting of 7 animals. Each test sample was dissolved in DMSO, and the concentration was adjusted to 0.1 or 1 μg/mL with physiological saline. The final DMSO concentration was adjusted to 0.2%. The pancreas dysfunction model mice were orally administered with 1 mL of the test sample once a day everyday for 42 days with a sonde. The serum insulin level was measured on the 43rd day of the continuous administration by using Lbis insulin mouse ELISA kit (Shibayagi Co., Ltd).

[2] = test system: db/db mice; assay: Pancreatic tissue protecting action: number and maximum area of Langerhans islets in pancreatic sections of db/db mice; format: in vivo; settings: for Maximum area of Langerhans islets on administration × 10^3 / The numbers of Langerhans islets in sections on 43rd day of administration: 1 μg/animal orally once a day for 42 days; for Maximum area of Langerhans islets on administration × 10^3: negative sample 44.5 ± 17.7; for The numbers of Langerhans islets in sections on 43rd day of administration: pancreatic sections of 3 positions, HE staining, negative sample 40.3 ± 9.7; for Action of protecting pancreatic tissues, especially endocrine cells: 42 days oral
Excerpt: In this test, the pancreatic tissue protecting action of compounds having a lophenol skeleton was examined by using db/db mice known as a model animal of pancreatic hypofunction or pancreatic tissue dysfunction.
4-methyl-cholest-7-en-3-ol produced in Preparation Example mentioned above was used as test sample 1, 4-methyl-ergost-7-en-3-ol was used as test sample 2, 4-methyl-stigmast-7-en-3-ol was used as test samples 3. Further, β-sitosterol (Tama Biochemical Co., Ltd.) was used as a control sample.
In this test, 6-week old male db/db mice (purchased from Clea Japan, Inc.) were used. These mice were divided into groups, each consisting of 7 animals. Each test sample was dissolved in DMSO, and the concentration was adjusted to 1 μg/mL with physiological saline. The final DMSO concentration was adjusted to 0.2%. The model mice were orally administered with 1 mL of the test sample once a day everyday for 42 days with a sonde. On the 43rd day of the continuous administration, the pancreas was extracted, divided into three portions of upstream, midstream and downstream from the duodenum side, and fixed with a formalin solution, and then paraffin blocks were prepared in a conventional manner. Section slides were prepared from the paraffin blocks, and subjected to hematoxylin-eosin staining. The numbers of Langerhans islets existing on the sections of the 3 position of the pancreas, and area of Langerhans islet having the maximum area on each section were measured by using an ocular micrometer on a microscope (“ECLIPSE E600”, NIKON CORP.).

[3] = 0.1 μg/animal orally once a day for 42 days
[4] = 1 μg/animal orally once a day for 42 days

SMILES	Serum insulin levels on 43rd day of administration [1, 3] [ng/mL]	Pancreatic function (insulin production ability) protecting effect [1]	Serum insulin levels on 43rd day of administration [1, 4] [ng/mL]	Serum insulin level as % of that observed in the negative test [1] [%]	Maximum area of Langerhans islets on administration × 10^3 ([2]; 43rd day)	The numbers of Langerhans islets in sections on 43rd day of administration [2] [piece]	Maximum area of Langerhans islets, times as large as that observed in the negative test ([2]; 1 μg/animal, 43rd day) [times]	Number of Langerhans islets as % of the number in the negative sample-administered mice ([2]; 1 μg/animal, 43rd day) [%]	Action of protecting pancreatic tissues, especially endocrine cells ([2]; 1 μg/animal)	Pancreatic function protecting effect ([2]; 1 μg/animal, 43rd day)	Change of numbers and maximum areas of Langerhans islets ([2]; 1 μg/animal, 43rd day, versus negative sample)
CC(C)CCCC(C)C1CCC2C3=CCC4C(C)C(O)CCC4(C)C3CCC21C (stereo not shown) [Test sample 1, 4-methyl-cholest-7-en-3-ol]	2.33 ± 1.23	any significant pancreatic function protecting effect was not observed	3.67 ± 0.80	184	160.0 ± 116.0 × 10^3 μm^2	75.7 ± 24.7	3.6	188	had an action of protecting pancreatic tissues		
CCC(CCC(C)C1CCC2C3=CCC4C(C)C(O)CCC4(C)C3CCC21C)C(C)C (stereo not shown) [Test sample 3, 4-methyl-stigmast-7-en-3-ol]	2.23 ± 0.68	any significant pancreatic function protecting effect was not observed	4.20 ± 1.86	211	122.6 ± 51.4 × 10^3 μm^2	60.4 ± 11.6	2.8	150	had an action of protecting pancreatic tissues		
CC[C@H](CC[C@@H](C)[C@H]1CC[C@H]2[C@@H]3CC=C4C[C@@H](O)CC[C@]4(C)[C@H]3CC[C@]12C)C(C)C [Control sample, β-sitosterol, reference compound]					69.1 ± 40.6 × 10^3 μm^2	42.3 ± 20.1				any pancreatic function protecting effect was not observed	don't show any significant change
CC(C)C(C)CCC(C)C1CCC2C3=CCC4C(C)C(O)CCC4(C)C3CCC21C (stereo not shown) [Test sample 2, 4-methyl-ergost-7-en-3-ol]	2.32 ± 1.52	any significant pancreatic function protecting effect was not observed	4.17 ± 2.23	210	178.7 ± 143.4 × 10^3 μm^2	64.1 ± 9.1	4	159	had an action of protecting pancreatic tissues		

— patent US8101594B2, “Method for improving pancreatic functions” (Morinaga Milk Industry Co., Ltd., priority 2005, dated 2012)
